# Where two headings read alike, the source gives them in different places.
# Tests used:
# [1] = Stability Test-1: odor of 1% aqueous solutions adjusted to pH 7 stored at 50° C.; assay type: physicochemical; conditions: 1% aqueous solution pH 7, 50° C., 10 panelists
# Experimental: (§1) For each of the samples of Synthesis Examples 1 to 6, 1% aqueous solutions were adjusted to pH 3, 5, 7, 8, and 9 with a dilute potassium hydroxide aqueous solution, and then placed in 50 mL screw tubes and sealed. […] Furthermore, the odor and coloration of the samples adjusted to pH 7 were evaluated based on the following methods and criteria, and the results are shown in Table 11.
# (§2) • Evaluation was made by 10 panelists according to the following criteria. • 3: Almost odorless. • 2: There is a slight strange odor. • 1: A strong odor is detected. • Based on the results of the above evaluation, the following classification was made: • ◯: Total score of 10 panelists is 25 or more • Δ: Total score of 10 panelists is 16-24 • x: The total score of 10 panelists is 15 or less
# [2] = system: Normal human dermal fibroblasts (NHDF); experiment: Hyaluronic acid production promoting effect (ELISA of hyaluronic acid in supernatant); assay type: cell-based; conditions: 10 mM or less, 48 hours, control group set to 100%, N=3
# Experimental: Normal human dermal fibroblasts (NHDF) were prepared in D-MEM containing 5% (v/v) fetal bovine serum to a cell density of 2.5×10^4 cells/well, and then pre-incubated on a 96-well plate for 24 hours. After removing the medium, samples prepared in serum-free D-MEM were added to each well and cultured for 48 hours. After the culture was completed, the amount of hyaluronic acid in the supernatant was quantified by ELISA. Measurements were performed in triplicate (N=3).
# The amount of hyaluronic acid produced when the sample was measured at a concentration of 10 mM or less was compared with that of the control group, and the results (% values when the control group is set to 100%) are shown in Tables 18 to 20 based on the following criteria.
# [3] = system: Normal human dermal fibroblasts; experiment: Collagen production promoting effect (ELISA of free collagen in supernatant); assay type: cell-based; conditions: 10 mM or less, 48 hours, control group set to 100%, N=3
# Experimental: Normal human dermal fibroblasts were prepared in D-MEM containing 5% (v/v) fetal bovine serum to a cell density of 2.5×10^4 cells/well, and then pre-incubated for 24 hours on a 96-well plate. After removing the medium, samples prepared to a predetermined concentration in D-MEM containing 5% (v/v) fetal bovine serum were added to each well and cultured for 48 hours. After the culture was completed, the amount of free collagen in the supernatant was quantified by ELISA. Measurements were performed in triplicate (N=3).
# The amount of collagen produced when the sample was measured at a concentration of 10 mM or less was compared with that of the control group, and the results (% values when the control group was set to 100%) are shown in Table 17 based on the following criteria.
# [4] = Stability Test-1: coloration of 1% aqueous solutions adjusted to pH 7 stored at 50° C.; assay type: physicochemical; conditions: 1% aqueous solution pH 7, 50° C., 10 panelists
# Experimental: as §1
# • Evaluation was made by 10 panelists according to the following criteria. • 3: Almost no change compared to immediately after preparation. • 2: Color changes compared to immediately after preparation. • 1: Strongly colored compared to immediately after preparation. • Based on the results of the above evaluation, the following classification was made: […]
# [5] = Stability Test-1: residual rate of 1% aqueous solutions stored at 50° C. (HPLC); assay type: physicochemical; conditions: water, 1% aqueous solution; for remaining at 336 h: after 2 weeks, read-out: Residual Rate; for remaining at 672 h: after 4 weeks
# Experimental: as §1
# • ⊚: 80% or more • ◯: 50% or more, less than 80% • Δ: 30% or more, less than 50% • x: Less than 30%
# [6] = Stability Test-2: odor of cream stored at 50° C.; assay type: physicochemical; conditions: 10 panelists
# Text: as §2
# (§3) For each of the samples of Synthesis Examples 9 to 32, (a) and (b) shown in Table 12 were each heated and mixed. After cooling, (c) shown in Table 12 was added to prepare a cream with a pH of 7 or 9. […] The odor and coloration were also evaluated according to the same method and criteria as in Test Example 1. The results regarding the residual rate are shown in Tables 13 and 14, and the results regarding the odor and coloration are shown in Tables 15 and 16.
# [7] = Stability Test-2: coloration of cream stored at 50° C.; assay type: physicochemical; conditions: 10 panelists
# Text: • Evaluation was made by 10 panelists according to the following criteria. • 3: Almost no change compared to immediately after preparation. • 2: Color changes compared to immediately after preparation. • 1: Strongly colored compared to immediately after preparation. • Based on the results of the above evaluation, the following classification was made:
# as §3
# [8] = Stability Test-2: residual rate in cream of pH 7 or 9 stored at 50° C.; assay type: physicochemical
# Experimental: as §3
# [9] = cream pH 7, 50° C., after 2 weeks, 20160 min
# [10] = cream pH 7, 50° C., after 4 weeks, 40320 min
# [11] = cream pH 9, 50° C., after 2 weeks, 20160 min
# [12] = cream pH 9, 50° C., after 4 weeks, 40320 min
Compound,Odor ([1]; after 2 weeks),Odor ([1]; after 4 weeks),Hyaluronic acid production-promoting effect [2],Collagen production-promoting effect [3],Coloration ([4]; after 2 weeks),Coloration ([4]; after 4 weeks),"remaining at 336 h ([5]; pH 3, 50° C.) [%]","remaining at 672 h ([5]; pH 3, 50° C.) [%]","remaining at 336 h ([5]; pH 5, 50° C.) [%]","remaining at 672 h ([5]; pH 5, 50° C.) [%]","remaining at 336 h ([5]; pH 7, 50° C.) [%]","remaining at 672 h ([5]; pH 7, 50° C.) [%]",Odor ([6]; after 2 weeks),Odor ([6]; after 4 weeks),Coloration ([7]; after 2 weeks),Coloration ([7]; after 4 weeks),"Residual Rate [8, 9]","Residual Rate [8, 10]","Residual Rate [8, 11]","Residual Rate [8, 12]",further results
"O=C1OC(C(O)CO)C2=C1OCCCO2 (stereo not drawn) [Synthesis Example 2, 2,3-O-(1,3-propanediyl) ascorbic acid]",∘ (Total score of 10 panelists is 25 or more),Δ (Total score of 10 panelists is 16-24),++ (120%<),++ (140%<),∘ (Total score of 10 panelists is 25 or more),∘ (Total score of 10 panelists is 25 or more),≥ 80,≥ 80,≥ 80,≥ 80,≥ 80,≥ 80,,,,,,,,,"remaining at 336 h ([5]; pH 8, 50° C.): ≥ 80%; remaining at 672 h ([5]; pH 8, 50° C.): 50 to 80%; remaining at 336 h ([5]; pH 9, 50° C.): 50 to 80%; remaining at 672 h ([5]; pH 9, 50° C.): 30 to 50%"
"O=C1OC(C(O)CO)C2=C1OCC(O)CO2 (stereo not drawn) [Synthesis Example 4, 2,3-O-(2-hydroxypropane-1,3-diyl) ascorbic acid]",∘ (Total score of 10 panelists is 25 or more),∘ (Total score of 10 panelists is 25 or more),++ (120%<),,∘ (Total score of 10 panelists is 25 or more),∘ (Total score of 10 panelists is 25 or more),≥ 80,≥ 80,≥ 80,≥ 80,50 to 80,50 to 80,,,,,,,,,"remaining at 336 h ([5]; pH 8, 50° C.): 50 to 80%; remaining at 672 h ([5]; pH 8, 50° C.): 30 to 50%; remaining at 336 h ([5]; pH 9, 50° C.): 50 to 80%; remaining at 672 h ([5]; pH 9, 50° C.): 30 to 50%"
"O=C1OC(C(O)CO)C2=C1OCC1(COC1)CO2 (stereo not drawn) [Synthesis Example 6, 2,3-O-(3,3-dimethyleneoxetane) ascorbic acid]",∘ (Total score of 10 panelists is 25 or more),∘ (Total score of 10 panelists is 25 or more),++ (120%<),++ (140%<),∘ (Total score of 10 panelists is 25 or more),∘ (Total score of 10 panelists is 25 or more),≥ 80,≥ 80,≥ 80,≥ 80,50 to 80,50 to 80,,,,,,,,,"remaining at 336 h ([5]; pH 8, 50° C.): 50 to 80%; remaining at 672 h ([5]; pH 8, 50° C.): 30 to 50%; remaining at 336 h ([5]; pH 9, 50° C.): 50 to 80%; remaining at 672 h ([5]; pH 9, 50° C.): 30 to 50%"
"CCCCCCCC(=O)OCC(OC(=O)CCCCCCC)C1OC(=O)C2=C1OCCCCO2 (stereo not drawn) [Synthesis Example 12, 5,6-O-dioctanoyl-2,3-O-(1,4-butanediyl) ascorbic acid]",,,++ (120%<),++ (140%<),,,,,,,,,◯ (Total score of 10 panelists is 25 or more),Δ (Total score of 10 panelists is 16-24),◯ (Total score of 10 panelists is 25 or more),◯ (Total score of 10 panelists is 25 or more),⊚ (95% or more),⊚ (95% or more),⊚ (95% or more),⊚ (95% or more),
"CCCCCCCCCCCCCCCC(=O)OCC(O)C1OC(=O)C2=C1OCCCCO2 (stereo not drawn) [Synthesis Example 15, 6-O-palmitoyl-2,3-O-(1,4-butanediyl) ascorbic acid]",,,++ (120%<),++ (140%<),,,,,,,,,◯ (Total score of 10 panelists is 25 or more),Δ (Total score of 10 panelists is 16-24),◯ (Total score of 10 panelists is 25 or more),◯ (Total score of 10 panelists is 25 or more),⊚ (95% or more),⊚ (95% or more),⊚ (95% or more),⊚ (95% or more),
"CCCC(=O)OCC(OC(=O)CCC)C1OC(=O)C2=C1OCCCO2 (stereo not drawn) [Synthesis Example 21, 5,6-O-dibutanoyl-2,3-O-(1,3-propanediyl) ascorbic acid]",,,++ (120%<),++ (140%<),,,,,,,,,◯ (Total score of 10 panelists is 25 or more),Δ (Total score of 10 panelists is 16-24),◯ (Total score of 10 panelists is 25 or more),◯ (Total score of 10 panelists is 25 or more),⊚ (95% or more),⊚ (95% or more),⊚ (95% or more),⊚ (95% or more),
"CCCCCCCCCCCCCCCC(=O)OCC(OC(=O)CCCCCCCCCCCCCCC)C1OC(=O)C2=C1OCCCO2 (stereo not drawn) [Synthesis Example 27, 5,6-O-dipalmitoyl-2,3-O-(1,3-propanediyl) ascorbic acid]",,,++ (120%<),++ (140%<),,,,,,,,,◯ (Total score of 10 panelists is 25 or more),Δ (Total score of 10 panelists is 16-24),◯ (Total score of 10 panelists is 25 or more),Δ (Total score of 10 panelists is 16-24),⊚ (95% or more),⊚ (95% or more),⊚ (95% or more),⊚ (95% or more),
"CC(C)CCCCCCCCCCCCCCC(=O)OCC(OC(=O)CCCCCCCCCCCCCCC(C)C)C1OC(=O)C2=C1OCCCO2 (stereo not drawn) [Synthesis Example 29, 5,6-O-diisostearoyl-2,3-O-(1,3-propanediyl) ascorbic acid]",,,,++ (140%<),,,,,,,,,◯ (Total score of 10 panelists is 25 or more),Δ (Total score of 10 panelists is 16-24),◯ (Total score of 10 panelists is 25 or more),◯ (Total score of 10 panelists is 25 or more),⊚ (95% or more),⊚ (95% or more),⊚ (95% or more),⊚ (95% or more),

# Source: patent publication US20260294769A1, “ASCORBIC ACID DERIVATIVES AND COSMETIC THEREOF” (SEIWA KASEI COMPANY, LIMITED, priority 2023, published 2026)
